Source: patent publication US8541167B2 (priority 2004, dated 2013)
Where two headings read alike, the source gives them in different places.

Key:
[1] = system: orthopoxvirus; set-up: species or system A/NCr mice; settings: mouse, in vivo
[2] = in vivo; cited from earlier work
[3] = system: live vaccinia virus (Dryvax); set-up: species or system A/NCr mice; settings: mouse, in vivo

In the case of `Nc1ccn(C[C@@H](CO)OCP(=O)(O)O)c(=O)n1` [Cidofovir], the “post challenge anti-orthopoxvirus antibody titers, presence vs absence of CDV” value [1] is given as “similar”, the “pre-challenge anti-orthopoxvirus antibody titers, presence vs absence of CDV” value [1] is given as “lower” and the oral bioavailability [2] is given as “low”. For the same molecule, the Lesion score [3] was 0, the “severity of vaccine lesions and healing” value [3] was “decreased the severity of vaccine lesions and facilitated healing” and the Lesion score ([3]; 12.5 mg/kg) was 0.

For hexadecyloxypropyl-CDV [HDP-CDV], the “attenuation of lesion development and acceleration of lesion resolution, compared with CDV” value [3] was “more efficacious than CDV” and the “severity of vaccine lesions and healing” value [3] was “decreased the severity of vaccine lesions and facilitated healing”.
